Measurements published in patent publication US20220313698A1, “MODULATORS OF CYSTIC FIBROSIS TRANSMEMBRANE CONDUCTANCE REGULATOR” (Vertex Pharmaceuticals Incorporated, priority 2019, published 2022).
Like-named read-outs stand apart in the source and are kept apart here. Each block holds one compound with its values, some of them ahead of it.

Assays:
[1] = snar bond, 15-membered ring
[2] = biological target: T1, CFTR-mediated chloride transport (Homo sapiens, UniProt P13569); test: Corrector Assay B - membrane potential dye assay (enteroid cells);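 also: methyl oxonol membrane potential fluorescence followed over 15 min after switching to chloride-free buffer with forskolin, 100 µM IBMX and ivacaftor, in presence of CaCC blockers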
Method: Base medium (ADF+++) consisted of Advanced DMEM/Ham's F12, 2 mM Glutamax, 10 mM HEPES, 1 μg/ml penicillin/streptomycin.
Intestinal enteroid maintenance medium (IEMM) consisted of ADF+++, 1×B27 supplement, 1×N2 supplement, 1.25 mM N-acetyl cysteine, 10 mM Nicotinamide, 50 ng/mL hEGF, 10 nM Gastrin, 1 μg/mL hR-spondin-1, 100 ng/mL hNoggin, TGF-b type 1 inhibitor A-83-01, 100 μg/mL Primocin, 10 μM P38 MAPK inhibitor SB202190.
Bath 1 Buffer consisted of 1 mM MgCl2, 160 mM NaCl, 4.5 mM KCl, 10 mM HEPES, 10 mM Glucose, 2 mM CaCl2).
Chloride Free Buffer consisted of 1 mM Magnesium Gluconate, 2 mM Calcium Gluconate, 4.5 mM Potassium Gluconate, 160 mM Sodium Gluconate, 10 mM HEPES, 10 mM Glucose.
Bath 1 Dye Solution consisted of Bath 1 Buffer, 0.04% Pluronic F127, 20 μM Methyl Oxonol, 30 μM CaCCinh-A01, 30 μM Chicago Sky Blue.
Chloride Free Dye Solution consisted of Chloride Free Buffer, 0.04% Pluronic F127, 20 μM Methyl Oxonol, 30 μM CaCCinh-A01, 30 μM Chicago Sky Blue.
Chloride Free Dye Stimulation Solution consisted of Chloride Free Dye Solution, 10 μM forskolin, 100 μM IBMX, and 300 nM Ivacaftor.
Cells were recovered in cell recovery solution, collected by centrifugation at 650 rpm for 5 min at 4° C., resuspended in TryPLE and incubated for 5 min at 37° C. Cells were then collected by centrifugation at 650 rpm for 5 min at 4° C. and resuspended in IEMM containing 10 μM ROCK inhibitor (RI). The cell suspension was passed through a 40 μm cell strainer and resuspended at 1×10^6 cells/mL in IEMM containing 10 μM RI. Cells were seeded at 5000 cells/well into multi-well plates and incubated for overnight at 37° C., 95% humidity and 5% CO2 prior to assay.
Briefly, cells were washed 5 times in Bath 1 Buffer. Bath 1 Dye Solution was added and the cells were incubated for 25 min at room temperature. Following dye incubation, cells were washed 3 times in Chloride Free Dye Solution. Chloride transport was initiated by addition of Chloride Free Dye Stimulation Solution and the fluorescence signal was read for 15 min. The CFTR-mediated chloride transport for each condition was determined from the AUC of the fluorescence response to acute forskolin and 300 nM N-[2,4-bis(1,1-dimethylethyl)-5-hydroxyphenyl]-1,4-dihydro-4-oxoquinoline-3-carboxamide stimulation. Chloride transport was then expressed as a percentage of the chloride transport following treatment with 3 μM Compound A, 3 μM (R)-1-(2,2-difluorobenzo[d][1,3]dioxol-5-yl)-N-(1-(2,3-dihydroxypropyl)-6-fluoro-2-(1-hydroxy-2-methylpropan-2-yl)-1H-indol-5-yl)cyclopropanecarboxamide and 300 nM acute N-[2,4-bis(1,1-dimethylethyl)-5-hydroxyphenyl]-1,4-dihydro-4-oxoquinoline-3-carboxamide triple combination control (% Activity).

[3] = biological target: T1, CFTR-mediated chloride transport; test: Corrector Assay A - membrane potential dye assay (enteroid cells)

Corrector Assay B % activity ([2]; % of chloride transport of triple combination control (3 μM Compound A + 3 μM tezacaftor + 300 nM ivacaftor)): ++ (++ is 30-60%)
EC50 ([2]; read-out: Corrector Assay B EC50, human intestinal enteroid cells, 18-24 h incubation, acute 10 μM forskolin + 300 nM ivacaftor): < 1000 nM
Structure (SMILES): CC1(C)C[C@@H]2CCCN(c3ccccc3)c3cccc(n3)S(=O)(=O)NC(=O)c3ccc(-n4ccc(OCCC5(C(F)(F)F)CC5)n4)nc3N1C2 [Compound 395, (14S)-12,12-dimethyl-18-phenyl-8-(3-{2-[1-(trifluoromethyl)cyclopropyl]ethoxy}-1H-pyrazol-1-yl)-2λ^6-thia-3,9,11,18,23-pentaazatetracyclo[17.3.1.111,14.05,10]tetracosa-1(23),5(10),6,8,19,21-hexaene-2,2,4-trione]
ring closure, isolated yield ([1]; from CC1(C)C[C@H](CCCN(c2ccccc2)c2cccc(S(=O)(=O)NC(=O)c3ccc(-n4ccc(OCCC5(C(F)(F)F)CC5)n4)nc3Cl)n2)CN1, K2CO3/3A MS, DMSO, 19.9 mM, 155.0 °C, 16.0 h, 2 steps): 46%

Corrector Assay A % activity ([3]; % of chloride transport of triple combination control (1 μM (14S)-dispiro macrocycle + 3 μM tezacaftor + 300 nM ivacaftor)): ++ (++ is 30-60%)
EC50 ([3]; read-out: Corrector Assay A EC50, human intestinal enteroid cells, 18-24 h incubation, acute 10 μM forskolin + 300 nM ivacaftor): 1000 to 3000 nM
Structure (SMILES): CC(C)(C)c1ncc2c(n1)N1C[C@@H](CCCNc3cccc(n3)S(=O)(=O)NC2=O)CC1(C)C [Compound 11, (14S)-8-tert-butyl-12,12-dimethyl-2λ^6-thia-3,7,9,11,18,23-hexaazatetracyclo[17.3.1.111,14.05,10]tetracosa-1(22),5,7,9,19(23),20-hexaene-2,2,4-trione]
ring closure, isolated yield ([1]; from 2-tert-Butyl-4-chloro-N-[[6-[3-[(3S)-5,5-dimethylpyrrolidin-3-yl]propylamino]-2-pyridyl]sulfonyl]pyrimidine-5-carboxamide (dihydrochloride salt), K2CO3/CsF, NMP, 123.1 mM, 150.0 °C): 13%

Structure (SMILES): CC(C)(C)c1ccnc(C2CC[C@H]3CCCN(C3)c3nc(C(C)(C)C)ccc3C(=O)NS(=O)(=O)c3cccc(n3)N2)c1 (some centres unmarked)
ring closure, isolated yield ([1]; from CC(C)(C)c1ccnc(C(CC[C@H]2CCCNC2)Nc2cccc(S(=O)(=O)NC(=O)c3ccc(C(C)(C)C)nc3F)n2)c1, K2CO3, DMSO, 69.4 mM, 120.0 °C, 24.0 h): 17%

Structure (SMILES): CC1(C)C[C@@H]2CCNCc3cccc(n3)S(=O)(=O)NC(=O)c3ccc(-n4ccc(OCCC5C6(CC6)C56CC6)n4)nc3N1C2
ring closure, isolated yield ([1]; from CC1(C)C[C@H](CCNCc2cccc(S(=O)(=O)NC(=O)c3ccc(-n4ccc(OCCC5C6(CC6)C56CC6)n4)nc3Cl)n2)CN1, K2CO3, DMSO, 57.3 mM, 120.0 °C, 24.0 h): 3%

Structure (SMILES): CC(C)(C)CC1CNc2cccc(n2)S(=O)(=O)NC(=O)c2ccc(-n3ccc(OCCC4C5(CC5)C45CC5)n3)nc2N2C[C@@H](C1)CC2(C)C (some centres unmarked)
ring closure, isolated yield ([1]; from CC(C)(C)CC(CNc1cccc(S(=O)(=O)NC(=O)c2ccc(-n3ccc(OCCC4C5(CC5)C45CC5)n3)nc2Cl)n1)C[C@@H]1CNC(C)(C)C1, K2CO3, DMSO, 73.6 mM, 120.0 °C, 20.0 h): 44%

Structure (SMILES): CC1(C)CC2CN1c1nc(-n3ccc(OCCC4C5(CC5)C45CC5)n3)ccc1C(=O)NS(=O)(=O)c1cccc(n1)NCCC2CCc1ccccc1 (centres unmarked)
ring closure, isolated yield ([1]; from CC1(C)CC(C(CCNc2cccc(S(=O)(=O)NC(=O)c3ccc(-n4ccc(OCCC5C6(CC6)C56CC6)n4)nc3Cl)n2)CCc2ccccc2)CN1, K2CO3, NMP, 64.5 mM, 150.0 °C, 20.0 h, 2 steps): 61%

Structure (SMILES): CC1(C)C[C@@H]2CCC(c3cncnc3)Nc3cccc(n3)S(=O)(=O)NC(=O)c3ccc(-n4ccc(OCCC5(C(F)(F)F)CC5)n4)nc3N1C2 (some centres unmarked)
ring closure, isolated yield ([1]; from CC1(C)C[C@H](CCC(Nc2cccc(S(=O)(=O)NC(=O)c3ccc(-n4ccc(OCCC5(C(F)(F)F)CC5)n4)nc3Cl)n2)c2cncnc2)CN1, K2CO3/3A MS, DMSO, 49.2 mM, 155.0 °C, 18.0 h): 28%

Structure (SMILES): CC(C)(C)c1ccnc(C2CC[C@@H]3CN(c4nc(C(C)(C)C)c(Br)cc4C(=O)NS(=O)(=O)c4cccc(n4)N2)C(C)(C)C3)c1 (some centres unmarked)
ring closure, isolated yield ([1]; from CC(C)(C)OC(=O)N1C[C@@H](CCC(Nc2cccc(S(=O)(=O)NC(=O)c3cc(Br)c(C(C)(C)C)nc3Cl)n2)c2cc(C(C)(C)C)ccn2)CC1(C)C, K2CO3, NMP, 61.5 mM, 160.0 °C, 2 steps): 56%

Structure (SMILES): CC1(C)C[C@@H]2CCC(c3ccccn3)Nc3cccc(n3)S(=O)(=O)NC(=O)c3ccc(-n4ccc(OCCC5(C(F)(F)F)CC5)n4)nc3N1C2 (some centres unmarked)
ring closure, isolated yield ([1]; from CC1(C)C[C@H](CCC(Nc2cccc(S(=O)(=O)NC(=O)c3ccc(-n4ccc(OCCC5(C(F)(F)F)CC5)n4)nc3Cl)n2)c2ccccn2)CN1, K2CO3/3A MS, DMSO, 26.1 mM, 155.0 °C, 18.0 h, 2 steps): 38%

Structure (SMILES): CC1(C)C[C@@H]2CCCNc3cccc(n3)S(=O)(=O)NC(=O)c3ccc(-n4ccc(OCCC5C6(CC6)C56CC6)n4)cc3N1C2
ring closure, isolated yield ([1]; from CC1(C)C[C@H](CCCNc2cccc(S(=O)(=O)NC(=O)c3ccc(-n4ccc(OCCC5C6(CC6)C56CC6)n4)cc3F)n2)CN1, Cs2CO3, DMSO, 67.0 mM, 150.0 °C, 96.0 h): 29%
